Reference: patent US20230054407A1, “OPTICAL BIOPSY STAIN PANELS AND METHODS OF USE” (ARIZONA BOARD OF REGENTS ON BEHALF OF THE UNIVERSITY OF …, priority 2020, published 2023)

Experiments:
[1] = In vitro fluorescence emission spectra and compatibility of nucleic acid and protein/cytoplasm dyes; type: physicochemical; conditions: for source of the resultant fluorescence emission signal of the mixture: Mitoxantrone mixed with Phloxine B at 100:1 molar ratio
Method: Additional incompatibility results from overlapping of the component peak emissions.
Daunorubicin (1 μM), Fluorescein (1 nM) and the combination of the two were excited at 375 nm, with resultant fluorescence emission.
With 405 nm excitation, Proflavine at 0.25 μM, Rose Bengal at 10 μM, and the combination result in roughly the same order of magnitude peaks resulting from their respective fluorescence.
FIGS. 8A-8F show emission spectra of various drug dye candidates. FIGS. 8A-8D show Mitoxantrone as a Hematoxylin-alternative candidate at 10 μM, with Phloxine B at 0.1 μM as an Eosin-alternative candidate drug-dye, and a combination of the two excited at different wavelengths: (FIG. 8A) 375 nm, (FIG. 8B) 405 nm, (FIG. 80) 455 nm, and (FIG. 8D) 488 nm. […] Additionally, there was overlap of emission spectra (FIG. 9) and the combination of certain DNA and protein dyes decreased the emission intensity relative to the same concentration of the component dye alone (FIG. 9 and FIG. 10).
The stain panels listed below use a combination of nucleus dyes and protein/cytoplasm dyes that have been optimized for their compatibility.

bovine lung tissue = experiment: Topical drug-dye staining of ex vivo bovine lung tissue imaged with confocal microscopy; conditions: for localization of drug-dye: ex vivo bovine lung tissue, qualitatively at the concentrations of FIGS. 2A-2D; for staining pattern: single dye applied topically to ex vivo bovine lung tissue, confocal microscopy
Description: Image field is 635.5 μm tall×wide. Inset is the structure of Proflavine.
Image field is 635.5 μm tall×wide. […]
Imaging was with confocal microscopy, with a bovine lung sample thickness of 10 μm, and an image field of 635.5 μm^2.
Imaging was with confocal microscopy settings at 488 nm excitation after topical application to the bovine lung specimen. Image field is 635.5 μm^2 at 10 μm thickness.
The dyes were pipetted in situ upon bovine tissue ex vivo and examined under confocal microscopy with a 488 nm laser with 10 μm optical thickness and imaged fields being 635.5 μm^2.
Referring to FIG. 1, 50 μl at 20 μM of Proflavine was topically applied directly to ex vivo bovine lung tissue in situ and imaged immediately with confocal microscopy. […] Likewise, Fluorescein, Phenol Red, Phloxine B, and Rose Bengal were each added to ex vivo bovine lung tissue and imaged under confocal microscopy (see FIGS. 2A-2I). […] This combination was then added topically to bovine lung tissue and imaged using confocal microscopy (FIG. 3). […]

[2] = system: human breast cancer metastasized to the lung; experiment: Staining of human breast cancer metastasized to the lung with Rose Bengal and Proflavine; conditions: Rose Bengal and Proflavine combined, concentrations similar to FIG. 6A

SMILES	Approximate peak fluorescence [1]	staining pattern (bovine lung tissue)	other results
Nc1c(/N=N/c2ccc(-c3ccc(/N=N/c4cc(S(=O)(=O)O)c5ccccc5c4N)cc3)cc2)cc(S(=O)(=O)O)c2ccccc12 [Congo Red]	~425 nm	–	–
COc1cccc2c1C(=O)c1c(O)c3c(c(O)c1C2=O)C[C@@](O)(C(C)=O)C[C@@H]3O[C@H]1C[C@H](N)[C@H](O)[C@H](C)O1 [Daunorubicin]	–	–	change of fluorescence emission peak with increasing concentrations of Phloxine B ([1]; 488 nm excitation, peak around 590 nm): progressive decrease of fluorescence emission
CN(C)c1ccc2nc3ccc(=[N+](C)C)cc-3sc2c1 [Methylene Blue]	~695 nm	–	–
O=C1c2c(O)ccc(O)c2C(=O)c2c(NCCNCCO)ccc(NCCNCCO)c21 [Mitoxantrone]	~685 nm	–	concentration dependence of fluorescence ([1]; 455 nm excitation): concentration-dependent fluorescence; source of the resultant fluorescence emission signal of the mixture ([1]; 375 nm excitation): primarily Mitoxantrone
O=C([O-])c1c(Cl)c(Cl)c(Cl)c(Cl)c1-c1c2cc(Br)c(=O)c(Br)c-2oc2c(Br)c([O-])c(Br)cc12.[Na+].[Na+] [Phloxine B]	~550 nm	variable staining of the proteinaceous connective tissue and cellular cytoplasm, granules or vesicles	localization of drug-dye (bovine lung tissue): appeared to localize to cell cytoplasm in addition to the connective tissue fibers; source of the resultant fluorescence emission signal of the mixture ([1]; 488 nm excitation): nearly all the fluorescence emission signal from Phloxine B
Nc1ccc2cc3ccc(N)cc3nc2c1 [Proflavine]	~508 nm	staining like those typical of a fluorescent DNA dye	structure outlined by the stain [2]: nucleus
O=C([O-])c1c(Cl)c(Cl)c(Cl)c(Cl)c1-c1c2cc(I)c(=O)c(I)c-2oc2c(I)c([O-])c(I)cc12.[Na+].[Na+] [Rose Bengal]	~565 nm	variable staining of the proteinaceous connective tissue and cellular cytoplasm, granules or vesicles	structure outlined by the stain [2]: proteins; localization of drug-dye (bovine lung tissue): appeared to localize to cell cytoplasm in addition to the connective tissue fibers
